Results as given in US20240368133A1, “Compounds for the Treatment of Pain, in Particular, Neuropathic Pain, and/or Other Diseases or Disorders that are Associated with AT2R and/or AT2R Mediated Signaling” (Confo Therapeutics N.V., priority 2021, published 2024).

Columns and labels:
[1] = biological target: human AT1R (Homo sapiens (Human), UniProt P30556); experiment: Counterscreen radioligand binding assay, displacement of 125I-[Sar1, Ile8]-Angiotensin II, hAT1R WT; settings: for inhibition at 1 µM / inhibition at 10 µM: 125I-[Sar1, Ile8]-Ang II, semi-quantitative score; for inhibition at 1 µM: compound at 1 μM, read-out: % Displaced radioligand at 1 μM; for inhibition at 10 µM: compound at 10 μM, read-out: % Displaced radioligand at 10 μM; for IC50: HEK-293 cell membranes, read-out: Binding affinity On hAT1R IC50
Chain of human AT1R (P30556 whole entry): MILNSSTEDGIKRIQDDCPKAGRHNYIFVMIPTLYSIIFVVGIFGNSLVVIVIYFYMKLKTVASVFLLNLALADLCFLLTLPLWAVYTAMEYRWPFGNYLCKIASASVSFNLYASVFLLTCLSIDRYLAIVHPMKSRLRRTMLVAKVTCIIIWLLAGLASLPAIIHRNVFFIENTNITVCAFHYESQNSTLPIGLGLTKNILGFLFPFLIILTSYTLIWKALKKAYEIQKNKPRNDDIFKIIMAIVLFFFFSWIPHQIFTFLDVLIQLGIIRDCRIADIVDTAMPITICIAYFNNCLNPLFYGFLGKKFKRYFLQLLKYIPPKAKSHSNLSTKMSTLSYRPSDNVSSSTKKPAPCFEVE
Summary of the method: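 Membranes from HEK-293 cells expressing human AT1R were incubated for one hour at 25° C, pH 7.4, with 0.05 nM radiolabelled [Sar1, Ile8]-Ang II and test ligand. Bound radioactivity was collected on PEI-soaked filters, with 10 μM unlabelled [Sar1]-Ang II defining non-specific binding. Results are percent displacement at 1 μM and […], or IC50 from eight-point duplicate curves.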

[2] = biological target: human AT2R fused to Cb23 (Homo sapiens, UniProt P50052); experiment: Radioligand binding assay, displacement of 125I-[Sar1, Ile8]-Angiotensin II, hAT2R Cb23; settings: displacement of 125I-[Sar1, Ile8]-Angiotensin II, human AT2R fused to Cb23, HEK-293 cell membrane preparations; read-out: Binding affinity on hAT2R_Cb23 IC50
Chain of human AT2R fused to Cb23 (P50052 whole entry, looked up, the tested form may be a part): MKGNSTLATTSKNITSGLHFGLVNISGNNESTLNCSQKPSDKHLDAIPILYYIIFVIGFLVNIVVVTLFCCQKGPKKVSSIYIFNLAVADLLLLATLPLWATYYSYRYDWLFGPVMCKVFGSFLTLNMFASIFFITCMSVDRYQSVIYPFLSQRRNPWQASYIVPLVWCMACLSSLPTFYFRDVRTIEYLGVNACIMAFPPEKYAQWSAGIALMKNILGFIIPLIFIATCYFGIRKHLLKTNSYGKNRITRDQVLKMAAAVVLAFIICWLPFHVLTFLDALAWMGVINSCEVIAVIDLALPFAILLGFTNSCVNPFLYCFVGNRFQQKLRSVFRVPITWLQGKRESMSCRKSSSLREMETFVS
Summary of the method: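 Membranes from HEK-293 cells expressing human AT2R fused to Cb23 were incubated with 0.05 nM 125I-[Sar1, Ile8]-Angiotensin II in 100 μL buffer (50 mM Tris, 5 mM MgCl2, 1 mM EDTA, 0.1% BSA, pH 7.4) for one hour at 25° C. Ligands were tested as eight-point dose-response curves in duplicate, with C21 and Angiotensin II as references.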

| SMILES | inhibition at 1 µM [1] [%] | inhibition at 10 µM [1] [%] | IC50 [1] [µM] | IC50 [2] [µM] |
| --- | --- | --- | --- | --- |
| CC(C)Cc1ccc(-c2nn[nH]n2)c(N2CCN(Cc3nc4ccccc4c(=O)n3C)CC2)c1 [Compound A-78, 2-[[4-[5-isobutyl-2-(2H-tetrazol-5-yl)-phenyl]piperazin-1-yl]methyl]-3-methyl-quinazolin-4-one] | < 30 | 30 to 50 | 12.2 | 1.5 |
| CC(C)Cc1ccc(-c2nn[nH]n2)c(N2CCN(Cc3nc4ccccc4n(C)c3=O)CC2)c1 [Compound A-79, 3-[[4-[5-isobutyl-2-(2H-tetrazol-5-yl)-phenyl]piperazin-1-yl]methyl]-1-methyl-quinoxalin-2-one] | < 30 | < 30 | – | 4.72 |
| CC(C)Cc1ccc(-c2nn[nH]n2)c(N2CCN(Cc3cnc4ccccn34)CC2)c1 [Compound A-80, 3-[[4-[5-isobutyl-2-(2H-tetrazol-5-yl)-phenyl]piperazin-1-yl]methyl]imid-azo[1,2-a]pyridine] | < 30 | < 30 | – | 0.222 |
| CC(C)Cc1ccc(-c2nn[nH]n2)c(N2CCN(Cc3nn(C)c4ccccc34)CC2)c1 [Compound A-81, 3-[[4-[5-isobutyl-2-(2H-tetrazol-5-yl)-phenyl]piperazin-1-yl]methyl]-1-methyl-indazole] | < 30 | < 30 | – | 1.84 |
| CC(C)Cc1ccc(-c2nn[nH]n2)c(N2CCN(Cc3ccc(C(F)(F)F)cn3)CC2)c1 [Compound A-85, 1-[5-isobutyl-2-(2H-tetrazol-5-yl)-phenyl]-4-[[5-(trifluoromethyl)-2-pyridyl]methyl]-piperazine] | < 30 | < 30 | 45 | 2.03 |
| Cc1nc(CN2CCN(c3cc(CC(C)C)ccc3-c3nn[nH]n3)CC2)no1 [Compound A-86, 3-[[4-[5-isobutyl-2-(2H-tetrazol-5-yl)phenyl]piperazin-1-yl]methyl]-5-methyl-1,2,4-oxadiazole] | < 30 | < 30 | – | 24.9 |
| Cc1nc(CN2CCN(c3cc(CC(C)C)ccc3-c3nn[nH]n3)CC2)cs1 [Compound A-87] | < 30 | < 30 | – | 3.81 |
| Cc1cc(CN2CCN(c3cc(CC(C)C)ccc3-c3nn[nH]n3)CC2)on1 [Compound A-89, 5-[[4-[5-isobutyl-2-(2H-tetrazol-5-yl)-phenyl]piperazin-1-yl]methyl]-3-methyl-isoxazole] | < 30 | < 30 | – | 9.78 |
| CC(C)Cc1ccc(-c2nn[nH]n2)c(N2CCN(Cc3cnccn3)CC2)c1 [Compound A-93, 2-[[4-[5-isobutyl-2-(2H-tetrazol-5-yl)-phenyl]piperazin-1-yl]methyl]pyr-azine] | < 30 | < 30 | – | 6.98 |
| CC(C)Cc1ccc(-c2nn[nH]n2)c(N2CCN(Cc3nncn3C)CC2)c1 [Compound A-94, 1-[5-isobutyl-2-(2H-tetrazol-5-yl)phenyl]-4-[(4-methyl-1,2,4-triazol-3-yl)methyl]piperazine] | < 30 | 30 to 50 | 14.2 | 4.77 |
| CC(C)Cc1ccc(-c2nn[nH]n2)c(N2CCN(Cc3nccs3)CC2)c1 [Compound A-97, 2-[[4-[5-isobutyl-2-(2H-tetrazol-5-yl)phenyl]piperazin-1-yl]methyl]thiazole] | < 30 | < 30 | – | 0.757 |
| CC(C)Cc1ccc(-c2nn[nH]n2)c(N2CCN(Cc3ncco3)CC2)c1 [Compound A-98, 2-[[4-[5-isobutyl-2-(2H-tetrazol-5-yl)-phenyl]piperazin-1-yl]methyl]oxazole] | < 30 | < 30 | – | 5.69 |
| Cc1noc(C)c1CN1CCN(c2cc(CC(C)C)ccc2-c2nn[nH]n2)CC1 [Compound A-101] | < 30 | < 30 | – | 4.48 |
| CC(C)Cc1ccc(-c2nn[nH]n2)c(N2CCN(Cc3cc(C4CC4)on3)CC2)c1 [Compound A-102, 5-cyclopropyl-3-[[4-[5-isobutyl-2-(2H-tetrazol-5-yl)phenyl]piperazin-1-yl]methyl]isoxazole] | < 30 | < 30 | – | 7.07 |
| Cc1cc(CN2CCN(c3cc(CC(C)C)ccc3-c3nn[nH]n3)CC2)n(C)n1 [Compound A-104, 1-[(2,5-dimethyl-pyrazol-3-yl)meth-yl]-4-[5-isobutyl-2-(2H-tetrazol-5-yl)-phenyl]piperazine] | < 30 | < 30 | – | 6 |
| CC(C)Cc1ccc(-c2nn[nH]n2)c(N2CCN(Cc3cncn3C)CC2)c1 [Compound A-105, 1-[5-isobutyl-2-(2H-tetrazol-5-yl)phenyl]-4-[(3-methylimidazol-4-yl)methyl]piperazine] | < 30 | < 30 | – | 2 |
| Cc1cnc(CN2CCN(c3cc(CC(C)C)ccc3-c3nn[nH]n3)CC2)s1 [Compound A-106, 2-[[4-[5-isobutyl-2-(2H-tetrazol-5-yl)phenyl]piperazin-1-yl]methyl]-5-methyl-thiazole] | < 30 | < 30 | – | 0.0355 |
| Cc1scnc1CN1CCN(c2cc(CC(C)C)ccc2-c2nn[nH]n2)CC1 [Compound A-111, 4-[[4-[5-isobutyl-2-(2H-tetrazol-5-yl)phenyl]piperazin-1-yl]methyl]-5-methyl-thiazole] | < 30 | < 30 | – | 5.43 |
| Cc1cnnc(CN2CCN(c3cc(CC(C)C)ccc3-c3nn[nH]n3)CC2)c1 [Compound A-112, 3-[[4-[5-isobutyl-2-(2H-tetrazol-5-yl)phenyl]piperazin-1-yl]methyl]-5-methyl-pyridazine] | < 30 | < 30 | – | 0.697 |
| Cc1ccc(CN2CCN(c3cc(CC(C)C)ccc3-c3nn[nH]n3)CC2)nn1 [Compound A-113] | < 30 | < 30 | – | 7.07 |
| COc1ccc(CN2CCN(c3cc(CC(C)C)ccc3-c3nn[nH]n3)CC2)nn1 [Compound A-115, 3-[[4-[5-isobutyl-2-(2H-tetrazol-5-yl)-phenyl]piperazin-1-yl]methyl]-6-methoxy-pyridazine] | < 30 | < 30 | – | 1.98 |
| COc1cc(F)c(-c2nn[nH]n2)c(N2CCN(Cc3nc4ccccc4s3)CC2)c1 [Compound A-116, 2-[[4-[3-fluoro-5-methoxy-2-(2H-tetrazol-5-yl)phen-yl]piperazin-1-yl]-methyl]-1,3-benzo-thiazole] | < 30 | 30 to 50 | 18.1 | 8.98 |
| CC(C)Oc1cc(F)c(-c2nn[nH]n2)c(N2CCN(Cc3nc4ccccc4s3)CC2)c1 [Compound A-118, 2-[[4-[3-fluoro-5-isopropoxy-2-(2H-tetrazol-5-yl)phen-yl]piperazin-1-yl]-methyl]-1,3-benzo-thiazole] | < 30 | < 30 | 41.5 | 1 |
| CCc1cc(-c2nn[nH]n2)c(N2CCN(Cc3nc4ccccc4s3)CC2)cc1OC(C)C [Compound A-119, 2-[[4-[4-ethyl-5-isopropoxy-2-(2H-tetrazol-5-yl)phen-yl]piperazin-1-yl]-methyl]-1,3-benzo-thiazole] | < 30 | < 30 | – | 9.42 |
| CCc1cc(OC(C)C)cc(N2CCN(Cc3nc4ccccc4s3)CC2)c1-c1nn[nH]n1 [Compound A-120, 2-[[4-[3-ethyl-5-iso-propoxy-2-(2H-tetrazol-5-yl)phen-yl]piperazin-1-yl]-methyl]-1,3-benzo-thiazole] | < 30 | < 30 | – | 0.459 |
| CC(C)Oc1cc(N2CCN(Cc3nc4ccccc4s3)CC2)c(-c2nn[nH]n2)cc1C1CC1 [Compound A-121, 2-[[4-[4-cycloprop-yl-5-isopropoxy-2-(2H-tetrazol-5-yl)-phenyl]piperazin-1-yl]methyl]-1,3-benzothiazole] | < 30 | 30 to 50 | 11.7 | 2.78 |
| CC(C)Oc1cc(C2CC2)c(-c2nn[nH]n2)c(N2CCN(Cc3nc4ccccc4s3)CC2)c1 [Compound A-122, 2-[[4-[3-cycloprop-yl-5-isopropoxy-2-(2H-tetrazol-5-yl)-phenyl]piperazin-1-yl]methyl]-1,3-benzothiazole] | < 30 | < 30 | – | 0.293 |
| CCOc1cc(-c2nn[nH]n2)c(N2CCN(Cc3nc4ccccc4s3)CC2)cc1OC(C)C [Compound A-123, 2-[[4-[4-ethoxy-5-isopropoxy-2-(2H-tetrazol-5-yl)phen-yl]piperazin-1-yl]-methyl]-1,3-benzo-thiazole] | < 30 | < 30 | – | 4.88 |
